Reference: the NIST ThermoML archive (doi:10.1021/je0302001)

Assay: mn = molality of the nth substance listed, in mol/kg
Conditions: for surface tension liquid-gas: Ring tensiometer; for viscosity / speed of sound / mass density: 101.3 kPa, Liquid; for viscosity: Capillary tube (Ostwald / Ubbelohde) method

O=[N+]([O-])[O-].O=[N+]([O-])[O-].[Zn+2] [nitric acid, zinc salt] + O
Conditions	mass density [kg/m3]	speed of sound [m/s]	surface tension liquid-gas [mN/m]	viscosity [mPa·s]
293.15 K, m1 = 0.0875	–	1489.1	–	–
293.15 K, m1 = 0.1329	–	1488.6	–	1.053
293.15 K, m1 = 0.2466	–	1494.3	–	1.086
293.15 K, m1 = 0.3388	–	1499	–	1.118
293.15 K, m1 = 0.6111	–	1514.8	–	1.21
293.15 K, m1 = 0.6405	–	1517	–	1.223
293.15 K, m1 = 1.113	–	1546	–	1.428
293.15 K, m1 = 1.258	–	1558.9	–	1.514
293.15 K, m1 = 1.551	–	1578.3	–	1.664
293.15 K, m1 = 1.906	–	1603.4	–	1.931
293.15 K, m1 = 2.145	–	1618.3	–	2.133
293.15 K, m1 = 2.29	–	1627.9	–	2.258
293.15 K, m1 = 2.292	–	1626.3	–	–
293.15 K, m1 = 2.344	–	1631.6	–	2.273
293.15 K, m1 = 2.91	–	1666.2	–	2.846
293.15 K, m1 = 3.472	–	1697.2	–	3.61
293.15 K, m1 = 4.075	–	1724.9	–	4.615
293.15 K, m1 = 4.817	–	1752.8	–	6.303
293.15 K, m1 = 5.133	–	–	85.7	–
293.15 K, m1 = 5.224	–	1762.1	–	7.371
293.15 K, m1 = 5.797	–	1777.6	–	9.658
293.15 K, m1 = 6.245	–	–	86.95	–
293.15 K, m1 = 6.34	–	1787.7	–	11.98
293.15 K, m1 = 6.89	–	1796.2	–	–
294.3 K, m1 = 0.0875	1010.8	–	–	–
295.95 K, m1 = 4.075	1492.7	–	–	–
296.1 K, m1 = 6.89	1712.4	–	–	–
296.15 K, m1 = 0.2466	1034.3	–	–	–
296.25 K, m1 = 4.817	1558.4	–	–	–
296.5 K, m1 = 1.258	1177	–	–	–
297.05 K, m1 = 0.3388	1047.7	–	–	–
297.05 K, m1 = 1.906	1259.3	–	–	–
297.5 K, m1 = 2.29	1304.8	–	–	–
297.8 K, m1 = 0.6111	1087.1	–	–	–
297.85 K, m1 = 0.1329	1016.6	–	–	–
297.9 K, m1 = 2.292	1304.8	–	–	–
297.95 K, m1 = 4.075	1491.1	–	–	–
298 K, m1 = 2.344	1310.8	–	–	–
298.05 K, m1 = 3.472	1432.6	–	–	–
298.15 K, m1 = 0.0875	–	1502.8	–	–
298.15 K, m1 = 0.1329	–	1501.5	–	0.937
298.15 K, m1 = 0.2466	–	1506.6	–	0.968
298.15 K, m1 = 0.3388	–	1512.2	–	0.997
298.15 K, m1 = 0.6111	–	1526.1	–	1.081
298.15 K, m1 = 0.6405	–	1527.3	–	1.093
298.15 K, m1 = 1.113	–	1554.3	–	1.278
298.15 K, m1 = 1.258	–	1570.5	–	1.355
298.15 K, m1 = 1.551	–	1584.3	–	1.489
298.15 K, m1 = 1.906	–	1606.9	–	1.725
298.15 K, m1 = 2.145	–	1620.9	–	1.903
298.15 K, m1 = 2.29	–	1633	–	2.009
298.15 K, m1 = 2.292	–	1628.3	–	–
298.15 K, m1 = 2.344	–	1633.6	–	2.026
298.15 K, m1 = 2.91	–	1665.2	–	2.527
298.15 K, m1 = 3.472	–	1694.4	–	3.188
298.15 K, m1 = 4.075	–	1719.1	–	4.048
298.15 K, m1 = 4.817	1556.8	1748.7	–	5.473
298.15 K, m1 = 5.224	–	1755.5	–	6.362
298.15 K, m1 = 5.797	–	1769.4	–	8.228
298.15 K, m1 = 6.34	–	1777.8	–	10.12
298.15 K, m1 = 6.89	–	1783	–	–
298.45 K, m1 = 0.0875	1009.7	–	–	–
298.45 K, m1 = 5.224	1589.9	–	–	–
298.65 K, m1 = 0.6405	1090.9	–	–	–
298.75 K, m1 = 1.113	1156.5	–	–	–
298.75 K, m1 = 2.91	1373.5	–	–	–
298.85 K, m1 = 2.145	1286.9	–	–	–
298.95 K, m1 = 1.258	1175.8	–	–	–
299.05 K, m1 = 7.349	1738.2	–	–	–
299.2 K, m1 = 1.906	1258	–	–	–
299.6 K, m1 = 5.8	1633.1	–	–	–
299.7 K, m1 = 0.2466	1033.3	–	–	–
299.7 K, m1 = 1.551	1213.3	–	–	–
299.7 K, m1 = 6.89	1708.8	–	–	–
299.75 K, m1 = 2.29	1303.4	–	–	–
300.05 K, m1 = 2.292	1303.4	–	–	–
300.05 K, m1 = 3.472	1431.1	–	–	–
300.05 K, m1 = 6.34	1671.6	–	–	–
300.2 K, m1 = 2.344	1309.4	–	–	–
300.35 K, m1 = 5.224	1588.3	–	–	–
300.55 K, m1 = 0.3388	1046.5	–	–	–
300.8 K, m1 = 0.6111	1085.9	–	–	–
300.8 K, m1 = 2.91	1372.1	–	–	–
301 K, m1 = 2.145	1285.5	–	–	–
301.25 K, m1 = 1.113	1155.2	–	–	–
301.35 K, m1 = 5.8	1631.5	–	–	–
301.35 K, m1 = 6.89	1707.1	–	–	–
301.4 K, m1 = 0.1329	1015.6	–	–	–
301.4 K, m1 = 1.906	1256.6	–	–	–
301.5 K, m1 = 1.258	1174.5	–	–	–
301.55 K, m1 = 0.6405	1089.7	–	–	–
301.85 K, m1 = 2.29	1302	–	–	–
301.85 K, m1 = 4.075	1488	–	–	–
301.85 K, m1 = 6.34	1669.9	–	–	–
302 K, m1 = 1.551	1212	–	–	–
302.1 K, m1 = 3.472	1429.5	–	–	–
302.1 K, m1 = 4.817	1553.4	–	–	–
302.2 K, m1 = 2.292	1302	–	–	–
302.25 K, m1 = 2.344	1308.1	–	–	–
302.25 K, m1 = 5.224	1586.5	–	–	–
302.35 K, m1 = 0.0875	1008.6	–	–	–
302.5 K, m1 = 7.349	1734.5	–	–	–
302.9 K, m1 = 2.91	1370.6	–	–	–
303.15 K, m1 = 0.0875	–	1514.4	–	–
303.15 K, m1 = 0.1329	–	1513	–	0.841
303.15 K, m1 = 0.2263	–	–	71.91	–
303.15 K, m1 = 0.2466	1032.1	1518.2	–	0.87
303.15 K, m1 = 0.334	–	–	71.94	–
303.15 K, m1 = 0.3388	–	1520.9	–	0.896
303.15 K, m1 = 0.6111	–	1535.9	–	0.976
303.15 K, m1 = 0.6198	–	–	72.68	–
303.15 K, m1 = 0.6405	–	1536.9	–	0.984
303.15 K, m1 = 0.8228	–	–	73.52	–
303.15 K, m1 = 1.113	–	1561.1	–	1.15
303.15 K, m1 = 1.258	–	1571.6	–	1.221
303.15 K, m1 = 1.259	–	–	74.63	–
303.15 K, m1 = 1.549	–	–	75.19	–
303.15 K, m1 = 1.551	–	1589.3	–	1.34
303.15 K, m1 = 1.818	–	–	75.65	–
303.15 K, m1 = 1.906	–	1610.2	–	1.549
303.15 K, m1 = 2.145	1284.1	–	–	1.711
303.15 K, m1 = 2.222	–	–	76.95	–
303.15 K, m1 = 2.29	–	–	–	1.797
303.15 K, m1 = 2.344	–	–	–	1.819
303.15 K, m1 = 2.526	–	–	77.93	–
303.15 K, m1 = 2.721	–	–	78.39	–
303.15 K, m1 = 2.91	–	–	–	2.259
303.15 K, m1 = 3.426	–	–	80.38	–
303.15 K, m1 = 3.472	–	–	–	2.839
303.15 K, m1 = 4.011	–	–	81.68	–
303.15 K, m1 = 4.075	–	–	–	3.581
303.15 K, m1 = 4.231	–	–	82.16	–
303.15 K, m1 = 4.817	–	–	–	4.795
303.15 K, m1 = 5.133	–	–	84.17	–
303.15 K, m1 = 5.224	–	–	–	5.544
303.15 K, m1 = 5.797	–	–	–	7.1
303.15 K, m1 = 6.245	–	–	85.54	–
303.15 K, m1 = 6.34	–	–	–	8.647
303.15 K, m1 = 6.89	–	–	–	10.85
303.15 K, m1 = 7.349	–	–	–	12.93
